The record followed here is ChEMBL document CHEMBL2412991, “Catalytic asymmetric total synthesis of (S)-(-)-zearalenone, a novel lipoxygenase inhibitor” (Bioorg Med Chem, 2013).

The experiment addresses T1, Seed linoleate 13S-lipoxygenase-1 (Glycine max, UniProt P08170).
T1 sequence (P08170 whole entry): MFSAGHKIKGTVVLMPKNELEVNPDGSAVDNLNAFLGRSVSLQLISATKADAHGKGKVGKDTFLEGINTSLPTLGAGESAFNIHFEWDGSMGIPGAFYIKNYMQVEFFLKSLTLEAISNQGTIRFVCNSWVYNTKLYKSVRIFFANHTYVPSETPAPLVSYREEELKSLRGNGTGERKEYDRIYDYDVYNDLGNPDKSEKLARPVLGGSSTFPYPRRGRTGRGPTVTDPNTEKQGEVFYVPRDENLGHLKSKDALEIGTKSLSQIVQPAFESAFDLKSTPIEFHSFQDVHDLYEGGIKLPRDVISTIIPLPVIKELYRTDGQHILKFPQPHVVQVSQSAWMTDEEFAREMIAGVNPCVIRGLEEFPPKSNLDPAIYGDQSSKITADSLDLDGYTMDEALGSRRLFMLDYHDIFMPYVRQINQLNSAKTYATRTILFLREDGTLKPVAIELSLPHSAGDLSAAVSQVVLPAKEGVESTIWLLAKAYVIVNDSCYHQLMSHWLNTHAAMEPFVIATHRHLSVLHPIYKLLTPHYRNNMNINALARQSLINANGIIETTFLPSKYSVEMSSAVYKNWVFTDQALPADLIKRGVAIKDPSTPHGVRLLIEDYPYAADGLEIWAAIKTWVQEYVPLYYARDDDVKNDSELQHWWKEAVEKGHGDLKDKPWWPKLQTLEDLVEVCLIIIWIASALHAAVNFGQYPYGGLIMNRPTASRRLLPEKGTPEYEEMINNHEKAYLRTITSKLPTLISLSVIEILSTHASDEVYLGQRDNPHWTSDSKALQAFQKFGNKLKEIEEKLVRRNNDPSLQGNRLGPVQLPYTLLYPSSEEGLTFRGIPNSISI
Put plainly: Inhibition of soybean lipoxygenase-1 assessed as inhibition of conversion of linoleic acid into hydroperoxy […] acid preincubated for 10 mins before substrate addition measured over 20 mins by spectrophotometric assay.

The IC50 is the concentration at which inhibition is half-maximal. As for `C[C@H]1CCCC(=O)CCC/C=C/c2cc(O)cc(O)c2C(=O)O1` [ZEARALENONE], the IC50 was 51 µM.
